These results are taken from ChEMBL document CHEMBL4118221, “Vinyldiaminotriazine-acridine conjugate as G-quadruplex alkylating agent” (Bioorg Med Chem, 2018).

Activity calls are given as the source filed them. The calls are words filed in the database; no cut-off is given here.

In data set [1] the test system is Quadruplex DNA. The experiment in a line: Alkylating activity at 5'-FAM-labeled human telomeric G-quadruplex DNA in K+ buffer at 100 uM measured up to 72 hrs by PAGE analysis. It counts as functional.
Data set [2] can be described thus: Alkylating activity at 5'-FAM-labeled T-T mismatched duplex DNA (unknown origin) in MES buffer at 100 uM measured up to 72 hrs by PAGE analysis. It counts as functional.
Data set [3] deals with Quadruplex DNA. Briefly: Alkylating activity at 5'-FAM-labeled human telomeric G-quadruplex DNA at 100 uM in Na+ buffer measured up to 72 hrs by PAGE analysis. It counts as functional.
A further data set concerns dsDNA. The experiment in a line: Alkylating activity at 5'-FAM-labeled T-A full-matched duplex DNA (unknown origin) in MES buffer at 100 uM measured up to 72 hrs by PAGE analysis. The data set is classed as functional.
The nature of data set [4]: Solubility of the compound in water. The data set is classed as physicochemical. The note with it: buffer.
For data set [5], the system named is Quadruplex DNA. Briefly: Alkylating activity at human telomeric G-quadruplex DNA in K+ buffer assessed as thermal stabilization by measuring change in melting temperature at 1.5 uM by circular dichroism spectral analysis. The data set is classed as functional. (In general: CD spectra are sensitive to the conformation of chiral molecules.)
Data set [6] deals with Quadruplex DNA. The experiment in a line: Alkylating activity at 12T base of human telomeric G-quadruplex DNA in K+ buffer at 100 uM using 9-mer primer after 72 hrs by primer extension method. The data set is classed as functional.
For data set [7], the system named is Quadruplex DNA. The experiment in a line: Effect on conformation of human telomeric G-quadruplex DNA in K+ buffer by circular dichroism spectral analysis. The data set is classed as nucleic-acid assay.
Data set [8] relates to Quadruplex DNA. The experiment in a line: Effect on conformation of human telomeric G-quadruplex DNA in Na+ buffer by circular dichroism spectral analysis. It counts as nucleic-acid assay.
Data set [9] concerns Quadruplex DNA. The experiment in a line: Alkylating activity at human telomeric G-quadruplex DNA in Na+ buffer assessed as thermal stabilization by measuring change in melting temperature at 1.5 uM by circular dichroism spectral analysis. The data set is classed as functional.
For data set [10], the system named is Quadruplex DNA. Briefly: Alkylating activity at 13T base of human telomeric G-quadruplex DNA in K+ buffer at 100 uM using 9-mer primer after 72 hrs by primer extension method. The data set is classed as functional.
Data set [11] has as its system Quadruplex DNA. The experiment in a line: Alkylating activity at 14G base of human telomeric G-quadruplex DNA in K+ buffer at 100 uM using 9-mer primer after 72 hrs by primer extension method. The data set is classed as functional.
In data set [12] the test system is Quadruplex DNA. The experiment in a line: Alkylating activity at 18T base of human telomeric G-quadruplex DNA in K+ buffer at 100 uM using 9-mer primer after 72 hrs by primer extension method. It counts as functional.
Data set [13] has as its system Quadruplex DNA. The experiment in a line: Alkylating activity at 19T base of human telomeric G-quadruplex DNA in K+ buffer at 100 uM using 9-mer primer after 72 hrs by primer extension method. It counts as functional.
In data set [14] the test system is Quadruplex DNA. The experiment in a line: Alkylating activity at 12T base of human telomeric G-quadruplex DNA in Na+ buffer at 100 uM using 9-mer primer after 72 hrs by primer extension method. The data set is classed as functional.
In data set [15] the test system is Quadruplex DNA. The experiment in a line: Alkylating activity at 13T base of human telomeric G-quadruplex DNA in Na+ buffer at 100 uM using 9-mer primer after 72 hrs by primer extension method. The data set is classed as functional.
Data set [16] relates to Quadruplex DNA. The experiment in a line: Alkylating activity at 14G base of human telomeric G-quadruplex DNA in Na+ buffer at 100 uM using 9-mer primer after 72 hrs by primer extension method. The data set is classed as functional.
The test system of data set [17] is Quadruplex DNA. The experiment in a line: Alkylating activity at 18T base of human telomeric G-quadruplex DNA in Na+ buffer at 100 uM using 9-mer primer after 72 hrs by primer extension method. It counts as functional.
The subject of data set [18] is Quadruplex DNA. Briefly: Alkylating activity at 19T base of human telomeric G-quadruplex DNA in Na+ buffer at 100 uM using 9-mer primer after 72 hrs by primer extension method. It counts as functional.
Data set [19] deals with Quadruplex DNA. The experiment in a line: Alkylating activity at 24T base of human telomeric G-quadruplex DNA in Na+ buffer at 100 uM using 9-mer primer after 72 hrs by primer extension method. It counts as functional.
The test system of data set [20] is Quadruplex DNA. Briefly: Alkylating activity at 25T base of human telomeric G-quadruplex DNA in Na+ buffer at 100 uM using 9-mer primer after 72 hrs by primer extension method. It counts as functional.
The subject of data set [21] is Quadruplex DNA. The experiment in a line: Alkylating activity at T bases of human telomeric G-quadruplex DNA in K+ buffer at 100 uM using 11-mer primer after 72 hrs by primer extension method. It counts as functional.
Data set [22] concerns Quadruplex DNA. The experiment in a line: Alkylating activity at T bases of human telomeric G-quadruplex DNA in Na+ buffer at 100 uM using 11-mer primer after 72 hrs by primer extension method. The data set is classed as functional.
The subject of data set [23] is Quadruplex DNA. The experiment in a line: Alkylating activity at T base of human telomeric G-quadruplex DNA in K+ buffer assessed as thymidine-compound adduct formation at 100 uM using 9-mer primer after 72 hrs by alkaline phosphatase and phosphodiesterase-1 enzymatic hydrolysis assay based ESI-MS analysis. It counts as functional.
Data set [24] is described as follows: Binding affinity to T-T mismatched duplex DNA (unknown origin) by isothermal calorimetric titration method. Background: ITC needs no label: the signal is the heat of the interaction.
In data set [25] the target is Quadruplex DNA. Briefly: Binding affinity to human telomeric G-quadruplex DNA in K+ buffer at 9.4 uM by UV-vis titration analysis. The data set is classed as nucleic-acid assay.
The target of data set [26] is Quadruplex DNA. The experiment in a line: Binding affinity to human telomeric G-quadruplex DNA in K+ buffer at 0.2 uM after 15 mins by spectrofluorometric method. The data set is classed as nucleic-acid assay.
Data set [27] in a line: Binding affinity to T-T mismatched duplex DNA (unknown origin) in MES buffer at 0.2 uM after 15 mins by spectrofluorometric method.
Data set [28] relates to Quadruplex DNA. Briefly: Binding affinity to human telomeric G-quadruplex DNA in Na+ buffer at 0.2 uM after 15 mins by spectrofluorometric method. The data set is classed as nucleic-acid assay.
Data set [29] deals with Quadruplex DNA. The experiment in a line: Binding affinity to human telomeric G-quadruplex DNA in Na+ buffer at 9.4 uM UV-vis titration analysis. It counts as nucleic-acid assay.

Turning to `C=Cc1nc(N)nc(NCCCCNc2c3ccccc3nc3c(C(=O)NCCCN(C)CCCNC(C)=O)cccc23)n1`, the result with Quadruplex DNA [1] and in the data set with Quadruplex DNA [3] was Active. Moreover, the result (in data set [2]; in the data set with dsDNA) was inactive. The solubility entry in [4] is listed as “Soluble”.

In the case of `C=Cc1nc(N)nc(NCCCCNc2c3ccccc3nc3c(C(=O)NCCCN(C)C)cccc23)n1`, the result with Quadruplex DNA [1] and with Quadruplex DNA [3] was Active. The result (in [2]; in the data set with dsDNA) was inactive. The solubility result in data set [4] is “Soluble”.

As usually defined, the ΔTm is the shift of the melting midpoint relative to a reference. As to `C=Cc1nc(N)nc(NCCCCNc2c3ccc(Cl)cc3nc3ccc(OC)cc23)n1`, the values for the ΔTm in the data set with Quadruplex DNA [5] and in the data set with Quadruplex DNA [9] were 12.7 °C and 5.4 °C, respectively. The outcome (in the data set on Quadruplex DNA [6]; in the data set on Quadruplex DNA [1]; in data set [2]; in the data set with Quadruplex DNA [3]; with Quadruplex DNA [10]; in the data set on Quadruplex DNA [11]) was Active. In addition, the outcome with Quadruplex DNA [12], in the data set on Quadruplex DNA [13], in the data set with Quadruplex DNA [14], with Quadruplex DNA [15], in the data set on Quadruplex DNA [16] and in the data set on Quadruplex DNA [17] was Active. For the same molecule, the result with Quadruplex DNA [18], with Quadruplex DNA [19], in the data set on Quadruplex DNA [20], in the data set on Quadruplex DNA [21], with Quadruplex DNA [22] and in the data set with Quadruplex DNA [23] was Active. The result in the data set on dsDNA, in the data set on Quadruplex DNA [7] and in the data set on Quadruplex DNA [8] was inactive. Also, the solubility result in data set [4] is “Soluble”.

As usually defined, the Kd is the concentration at which binding is half-saturated. Higher therefore signals a looser complex. In turn, `COc1ccc2nc3cc(Cl)ccc3c(NCCCCNc3nc(N)nc(N)n3)c2c1` came in with a dissociation constant Kd in data set [24] of 510 nM.

As to `COc1ccc2nc3cc(Cl)ccc3c(NCCCCNc3nc(N)nc(CCSC)n3)c2c1`, the Kd at Quadruplex DNA [25] worked out at 1940 nM; on Quadruplex DNA [26] it was 610 nM; in [27], 1290 nM; on Quadruplex DNA [29] it was 2210 nM. In addition, the outcome with Quadruplex DNA [28] was inactive.

For the molecule `CSCCc1nc(N)nc(NCCCCNc2c3ccccc3nc3c(C(=O)NCCCN(C)C)cccc23)n1`, the Kd on Quadruplex DNA [26] is 440 nM; in data set [27], 640 nM. Besides, in the data set with Quadruplex DNA [28], the result was inactive.
